Our source for the Activity and EC50 values is ChEMBL document CHEMBL1153930, “(-)-Dibromophakellin: an alpha2B adrenoceptor agonist isolated from the Australian marine sponge, Acanthella costata” (Bioorg Med Chem, 2009).

Experiment [1] deals with T1, Alpha-2B adrenergic receptor (Homo sapiens) (UniProt P18089).
T1 sequence (whole entry): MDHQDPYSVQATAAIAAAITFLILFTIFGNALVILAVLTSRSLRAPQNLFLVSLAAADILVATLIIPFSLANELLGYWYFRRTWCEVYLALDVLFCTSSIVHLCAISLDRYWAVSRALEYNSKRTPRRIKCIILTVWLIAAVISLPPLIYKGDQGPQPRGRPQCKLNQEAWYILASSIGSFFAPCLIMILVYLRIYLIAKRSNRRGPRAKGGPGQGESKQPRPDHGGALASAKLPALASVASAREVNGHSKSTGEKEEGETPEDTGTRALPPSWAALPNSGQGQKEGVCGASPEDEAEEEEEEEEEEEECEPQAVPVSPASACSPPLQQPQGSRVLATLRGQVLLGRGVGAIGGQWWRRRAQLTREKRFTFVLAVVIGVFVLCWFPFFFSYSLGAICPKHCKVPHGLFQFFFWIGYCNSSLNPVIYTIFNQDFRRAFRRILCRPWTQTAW
Kind of experiment: Agonist activity at human adrenergic alpha2B receptor expressed in HEK293 cells coexpressing Gqi5 protein up to 83 uM by FLIPR assay. In kind it is functional, cell-based.

The target in experiment [2] is T2, Alpha-2B adrenergic receptor (Homo sapiens, UniProt P18089).
T2 sequence (P18089 whole entry): T1 sequence (whole entry)
Nature of the experiment: Agonist activity at human adrenergic alpha2B receptor expressed in HEK293 cells coexpressing Gqi5 protein by FLIPR assay. Format: functional, cell-based.

Calls of active or inactive are those of the source. The calls are words filed in the database; no cut-off is given here.

On to `NC1=N[C@]23CCCN2C(=O)c2cccn2[C@@H]3N1`, for which the outcome in experiment [1] was inactive.

With `NC1=N[C@]23CCCN2C(=O)c2cc(Br)c(-c4ccccc4)n2[C@@H]3N1`, in experiment [1], the outcome was inactive.

Take `NC1=N[C@]23CCCN2C(=O)c2cc(-c4ccccc4)c(-c4ccccc4)n2[C@@H]3N1`: in experiment [1], the result was inactive.

With `NC1=N[C@H]2n3c(cc(Br)c3Br)C(=O)N3CCC[C@]23N1` [DIBROMOPHAKELLIN], in experiment [2], the 50% effective concentration (EC50) (commonly the concentration at which the effect is half-maximal) stood at 4.2 µM.

`NC1=N[C@]23CCCN2C(=O)c2cc(Br)cn2[C@@H]3N1`: the outcome in experiment [1] was inactive.
